Assays:
[1] = system: 1A9PTX22 ovarian carcinoma; experiment: Hollow fiber in vivo tumor cell cultivation model in athymic nude mice; parameters: species or system human; details: for Experiment #1 % T/C ± SEM / Experiment #2 % T/C ± SEM: 1A9PTX22 hollow fibers s.c., day 7, Paclitaxel 15 mg/kg i.v. daily for 5 days, Ex. 1 45 mg/kg i.v. once; for Average % T/C: 1A9PTX22 hollow fibers, average of experiments #1 and #2
Source text: (§1) Utilizing this model, one can measure the ability of test compounds to inhibit the growth of human tumor cells in hollow fibers growing subcutaneously (s.c.) in athymic nude mice. The histologic tumor types employed were MIP 101 colon carcinoma, HCT-116 colon carcinoma, 1A9PTX22 ovarian carcinoma, and 1A9 ovarian carcinoma.
(§2) The HCT 116 human colon tumor cell line was obtained from the American Type Culture Collection, Rockville, Md. The MIP 101 human colon tumor cell line was obtained from Dr. Robert Kramer (Bristol Meyers Squibb) and was previously described (Niles R M, Wilhelm S A, Steele G D JR, Burke B, Christensen T, Dexter D, O'Brien M J, Thomas P, Zamcheck N. Isolation and characterization of an undifferentiated human colon carcinoma cell line (MIP-101). Cancer Invest. 1987;5(6):545-52.). The 1A9 and the 1A9PTX22 ovarian tumor cell lines were obtained from Dr. Toto Fojo, Medicine Branch, Division of Clinical Sciences, National Cancer Institute, National Institutes of Health, Bethesda, Md. 20892. The 1A9 is a clone of the ovarian carcinoma cell line, A2780 (Balachandran R, ter Haar E, Welsh M J, Grant S G, Day B W. The potent microtubule-stabilizing agent (+)-discodermolide induces apoptosis in human breast carcinoma cells-preliminary comparisons to paclitaxel. Anti-Cancer Drugs 1998; 9:67-76. [Errata: Anti-Cancer Drugs 1998: 9:369-370]). The 1A9PTX22 subline was isolated as an individual clone from the 1A9 cell line in a single step selection by exposure to 5 ng/mL paclitaxel in the presence of 5 μg/mL of verapamil. […] Resistance to paclitaxel was maintained after two years of culturing in drug-free media, and was attributed to the Ala^364→Thr mutation in β-tubulin that was found in the 1A9PTX22 cell line. All cell lines were propagated and expanded in RPMI 1640 medium containing 10% heat-inactivated FBS (Life Technologies, Grand Island, N.Y.) in a tissue culture incubator (37° C., controlled, humidified atmosphere containing 5% CO2). Cell expansions were performed in T75 tissue culture flasks (Costar®, Corning, N.Y.). For hollow fiber preparations, cells were harvested at 70-90% confluency using 0.25% Trypsin-EDTA (Life Technologies, Grand Island, N.Y.).
(§3) PVDF hollow fibers (Spectrum, Gardena, Calif.) were soaked in 70% EtOH for 72 hours before use. After this step, all handling of fibers was done under a biological laminar flow hood using aseptic procedures. Individual fibers were flushed with 3 mL of ice-cold tissue culture media using a syringe equipped with a 20-gauge needle. Next, each fiber was filled with an appropriate cell suspension (1×10^6 cells/mL for the 1A9 and 1A9PTX22 cells, and 0.3×10^6 cells/mL for the HCT 116 and MIP 101 cells), and both ends of the fiber were sealed with a hot flat needle holder. The entire length of the fiber was then sealed into 1.5 cm microcapsules (further called “hollow fibers”), each containing approximately 15 μL of the appropriate cell suspension. After separation, individual hollow fibers were placed in 6 well plates (6 fibers in 5 mL media per well), and were incubated overnight at 37° C. in the tissue culture incubator.
(§4) Outbred athymic (nu/nu) female mice (“Chrls:Athymic Nude-nu”, Charles River Laboratories, Wilmington, Mass.) were anesthetized with ip injections of Ketamine/Xylazine (150 mg/kg, and 12 mg/kg body weight, respectively). For the subcutaneous implantation an 11-gauge trocar containing one or two hollow fibers was inserted through an incision made with scissors at the nape of the neck of an animal, and fibers were released by retracting the trocar while depressing the plunger. This procedure was repeated until all four hollow fibers were implanted. One wound clip was used to close the skin incision. After the surgery each animal received a single, subcutaneous injection of 0.4 mg/kg butorphenol to relieve any potential pain. Animals recovered from the anesthesia on a heating pad, before returning to their cages. […]

HCT-116 colon carcinoma = experiment: as above; parameters: species or system human; details: for Experiment #1 % T/C ± SEM / Experiment #2 % T/C ± SEM: HCT 116 hollow fibers s.c., day 7, Paclitaxel 15 mg/kg i.v. daily for 5 days, Ex. 1 45 mg/kg i.v. once; for Average % T/C: HCT 116 hollow fibers, average of experiments #1 and #2
Source text: as §1, §2, §3, §4

1A9 ovarian carcinoma = experiment: as above; parameters: species or system human
Source text: as §1, §2, §3, §4

MIP 101 colon carcinoma = experiment: as above; parameters: species or system human; details: for Experiment #1 % T/C ± SEM / Experiment #2 % T/C ± SEM: MIP 101 hollow fibers s.c., day 7, Paclitaxel 15 mg/kg i.v. daily for 5 days, Ex. 1 45 mg/kg i.v. once; for Average % T/C: MIP 101 hollow fibers, average of experiments #1 and #2
Source text: as §1, §2, §3, §4

1A9PTX22 cell line = details: 1A9PTX22 vs parental 1A9; cited from earlier work
[2] = 1A9 hollow fibers s.c., day 7, Paclitaxel 15 mg/kg i.v. daily for 5 days, Ex. 1 45 mg/kg i.v. once
[3] = 1A9 hollow fibers, average of experiments #1 and #2

C=C/C=C\[C@H](C)[C@H](OC(N)=O)[C@@H](C)[C@@H](O)[C@@H](C)C/C(C)=C\[C@H](C)[C@@H](O)[C@@H](C)/C=C\[C@@H](O)C[C@H](O)[C@H](C)[C@H](O)[C@@H](C)C(=O)[O-].[Na+] [Ex. 1, (2R,3S,4S,5S,7S,8Z,10S,11S,12S,13Z,16S,17S,18S,19S,20S,21Z)-19-[(aminocarbonyl)oxy]-3,5,7,11,17-pentahydroxy-2,4,10,12,14,16,18,20-octamethyl-8,13,21,23-tetracosatetraenoic acid, sodium salt]
Experiment #1 % T/C ± SEM [1]: 6 ± 2 %
Experiment #2 % T/C ± SEM [1]: 16 ± 7 %
Average % T/C [1]: 11%
Experiment #1 % T/C ± SEM (HCT-116 colon carcinoma): 15 ± 4 %
Experiment #2 % T/C ± SEM (HCT-116 colon carcinoma): 10 ± 3 %
Average % T/C (HCT-116 colon carcinoma): 13%
Experiment #2 % T/C ± SEM (1A9 ovarian carcinoma; 1A9 hollow fibers s.c., day 7, Ex. 1 45 mg/kg i.v. once): 23 ± 8 %
Experiment #1 % T/C ± SEM (1A9 ovarian carcinoma; [2]): 14 ± 4 %
Average % T/C (1A9 ovarian carcinoma; [3]): 19%
Experiment #1 % T/C ± SEM (MIP 101 colon carcinoma): 50 ± 9 %
Experiment #2 % T/C ± SEM (MIP 101 colon carcinoma): 90 ± 9%
Average % T/C (MIP 101 colon carcinoma): 70%

CC(=O)O[C@H]1C(=O)[C@@]2(C)[C@H]([C@H](OC(=O)c3ccccc3)[C@]3(O)C[C@H](OC(=O)[C@H](O)[C@@H](NC(=O)c4ccccc4)c4ccccc4)C(C)=C1C3(C)C)[C@]1(OC(C)=O)CO[C@@H]1C[C@@H]2O [paclitaxel]
Experiment #1 % T/C ± SEM [1]: 109 ± 16%
Experiment #2 % T/C ± SEM [1]: 84 ± 8%
Average % T/C [1]: 97%
Experiment #1 % T/C ± SEM (HCT-116 colon carcinoma): 2 ± 1 %
Experiment #2 % T/C ± SEM (HCT-116 colon carcinoma): 1 ± 2 %
Average % T/C (HCT-116 colon carcinoma): 1%
Experiment #1 % T/C ± SEM (1A9 ovarian carcinoma; [2]): 1 ± 3 %
Experiment #2 regression (Reg.) (1A9 ovarian carcinoma; 1A9 hollow fibers s.c., day 7, Paclitaxel 15 mg/kg i.v. daily for 5 days, regression = (1−Mean T/Mean T0)×100%): 53% Reg.**
Average regression (Reg.) (1A9 ovarian carcinoma; [3]): 26% Reg.
Experiment #1 % T/C ± SEM (MIP 101 colon carcinoma): 113 ± 10%
Experiment #2 % T/C ± SEM (MIP 101 colon carcinoma): 112 ± 11%
Average % T/C (MIP 101 colon carcinoma): 113%
Resistance to paclitaxel of 1A9PTX22 relative to parental 1A9 (1A9PTX22 cell line): 24 fold

From patent US6734177B2, “Certain salts of discodermolide acid, pharmaceutical compositions containing them and their use in treating tumors” (Novartis AG, priority 2001, dated 2004)
